# Reference: patent publication US20240083943A1, “VEGF-REGULATING PEPTIDES” (IDP DISCOVERY PHARMA, S.L., priority 2020, published 2024)
# Positions of bridges follow the written chain, without caps; N, C: chain ends. Non-standard residues stand in square brackets, D forms with d. No end group written: not given here. formula (I), R19:CH3 = not defined here; formula (I) = not defined here
# Columns and labels:
# [1] = tested on: VEGF protein in ARPE-19 human retinal pigment epithelia cells; experiment: VEGF ELISA of culture supernatant, CoCl2-induced hypoxia vs normoxia, ARPE-19 cells; type: cell-based; details: for Relative VEGF (Hypoxia/Normoxia) / Relative VEGF (Hipoxia/Normoxia): peptide 20 μM; for Relative VEGF (Hypoxia/Normoxia): 24 hr, 300 μM CoCl2, Table 2, untreated ratio 2.02; for Relative VEGF (Hipoxia/Normoxia): Table 3, untreated ratio 1.87; for Effect on VEGF expression under hypoxia conditions (in words): compared with untreated cells
# Method: (§1) MDA-MB-231 human breast cancer cell lines, HaCat immortalized human keratinocyte cell line and ARPE-19 human retinal pigment epithelia (RPE) cell line were purchased from American Type Culture Collection (ATCC, Manassas, VA, USA). Human cells were routinely authenticated using genotype profiling according to the ATCC guidelines. ARPE-19 cells were maintained in DMEM/F12 medium with HEPES supplemented with 10% fetal calf serum and antibiotics.
# (§2) A fresh stock solution 0.4 M CoCl2 was prepared in water and added to the medium to obtain the concentration of 50 μM for MDA-MB-231, 200 μM for HaCaT and 300 μM for ARPE-19 cells. Cells were incubated with respective CoCl2 concentration for 24 hr to mimic hypoxic conditions.
# The VEGF-content of the supernatant of culture cells was measured by a VEGF-ELISA (Abcam; ab100662; Cambridge, UK) following the manufacturer's instructions. The range of detection of the ELISA was between 8.23 pg/ml and 6,000 pg/ml. […] The same procedure was used in the presence of the peptides of the invention.
# (§3) RT-PCR experiments were repeated at least 2 times. For VEGF assays, the mean±S.D of 3 determinations carried out in triplicate were calculated. Statistical significance was determined using Mann-Whitney tests for comparisons of means in a SPPS statistical software for Microsoft Windows, release 6.0 (Professional Statistic, Chicago, IL, USA). Individual comparisons were made using Student's two-tailed, unpaired t-tests. Criterion for significance was P<0.05 for all comparisons.
# The objective of this study was to determine the regulation of VEGF by the peptides in hypoxia induced conditions in ARPE-19 cell lines. The VEGF protein (using ELISA kit) was calculated in untreated cells in hypoxia vs. normoxia and a threshold of activity was set. Then, cells were treated with a solution of the corresponding peptide of the invention at 20 μM dissolved in cell culture medium alone (normoxia condition) or in the presence of CoCl2 (hypoxia conditions) and the ratio of VEGF protein amount was calculated. The peptides showing a VEGFhyp/VEGFnorm ratio higher than the ratio in untreated cells were considered as inducers of VEGF protein, while peptides providing a VEGFhyp/VEGFnorm ratio lower than the ratio in untreated cells were considered as reducers of VEGF protein, as reported in table 2.
# [2] = tested on: VEGF protein in HaCat immortalized human keratinocyte cells; experiment: VEGF ELISA of culture supernatant, CoCl2-induced hypoxia vs normoxia, HaCat cells; type: cell-based; details: peptide 10 μM, untreated ratio 1.15
# Source text: as §1
# (§4) MDA-MB-231 and HaCaT were maintained in DMEM medium with glucose 4.5gr/L, glutamine and pyruvate 2 mM and supplemented with 10% fetal calf serum and antibiotics.
# as §2
# (§5) The VEGF-content of the supernatant of culture cells was measured by a VEGF-ELISA (Abcam; ab100662; Cambridge, UK) following the manufacturer's instructions. […]
# as §3, with “Individual comparisons were made using Student's two-tailed, unpaired t-tests. Criterion for significance was P<0.05 for all comparisons.” left out
# [3] = tested on: VEGF protein in MDA-MB-231 human breast cancer cells; experiment: VEGF ELISA of culture supernatant, CoCl2-induced hypoxia vs normoxia, MDA-MB-231 cells; type: cell-based; details: peptide 10 μM, untreated ratio 1.72
# Source text: as §1, §4, §2, §5
# as §3, with “Individual comparisons were made using Student's two-tailed, unpaired t-tests. Criterion for significance was P<0.05 for all comparisons.” left out
# [4] = tested on: VEGF mRNA in ARPE-19 cells; experiment: Real time quantitative RT-PCR of VEGF mRNA in ARPE-19 cells; type: cell-based, human; details: for VEGF mRNA level compared to untreated cells (in words): ARPE-19, 10 μM; for Relative Copy to Control / VEGF mRNA Copy/Copy million of Actine: ARPE-19, peptide 10 μM, 24 hr; for Relative Copy to Control: control = untreated normoxia (1)
# Method: as §2
# Extraction of RNA from indicated cells was performed using the NZY total RNA isolation kit (Nzytech, Lisboa, Portugal) and cDNA prepared using the NZY First-Strand cDNA Synthesis Kit (Nzytech). Primers were designed using Primer Blast software (NCBI) and obtained from Thermo-Fisher. mRNA expression levels were evaluated by qRT-PCR (QuantStudio 5 Real-Time PCR System, Applied Biosystems, Foster City, CA, USA) using SYBR green master mix (Applied Biosystems) and normalized to […]. The following primers were used in this study: β-Actin (forward: 5″-AGAAAATCTGGCACCACACC-3″ (SEQ ID NO: 32); reverse: 5″-GGGGTGTTGAAGGTCTCAAA-3″ (SEQ ID NO: 33)); VGFA (forward: 5″-TACTGCCATCCAATCGAGAC-3″ (SEQ ID NO: 34); reverse: 5″-GCA TGG TGA TGT TGG ACT-3″ (SEQ ID NO: 35)).
# as §3
# The VEGF expression regulation was also determined by […] in ARPE-19 cells treated with the peptide SEQ ID NO: 17 at 10 μM for 24 hr in normoxia and hypoxia conditions.
# [5] = tested on: CD31 staining (blood vessels) in MDA-MB-231 tumours; experiment: Angiogenesis reduction in vivo: CD31 immunohistochemistry of MDA-MB-231 breast tumour xenografts; details: MDA-MB-231 xenograft in athymic mice, s.c. 2x week, vs vehicle
# Method: MDA-MB-231 cells were inoculated (2.5×10^6 cells/animal) in 100 μl of DMEM into the mammary fat pad of athymic mice. When tumours reached a volume of 100 mm3, animals were divided in groups and treated 2× week by s.c. administration with vehicle (2% Tween-20 in 0.9% NaCl sterile, control group) and 2× week by s.c. administration with SEQ ID NO:17 (treated group). At sacrifice, tumours were collected, weighed and formalin-fixed (24 h). Formalin-fixed tumours were processed for paraffin-embedded tissue blocks, which were sent for analysis to the Dept. Bioquimica y Biologic Molecular A, Facultad de Veterinaria, Universidad de Murcia.
# Hematoxylin, eosin, diaminobenzidine tetrahydrochloride and hydrogen peroxide were obtained from Merck (Madrid, Spain). The antibody mouse monoclonal anti-CD31 was obtained from Novus.
# Tumours washed in PBS, fixed in 10% formalin and embedded in paraffin.
# Haematoxylin and eosin (H&E) staining was performed on serial sections of paraffin embedded tissues. For immunohistochemistry, paraffin sections were deparaffinized and subjected to antigen retrieval in sodium citrate buffer (pH 6.0). Tissue endogenous peroxidase was inactivated with 5% hydrogen peroxide. Slides were blocked and incubated with primary antibodies overnight at 4 C. […] The stained slides were scanned using a SCN400F Leica scanner and images were analysed using ImageJ software.
substance,measurement,setting,value
"SEQ ID NO: 21: cross-linked (stapled) peptide derived from SEQ ID NO: 1 (LDKASVM[formula (I), R19:CH3]LTISYL[formula (I), R19:CH3]VRK-NH2; staple 8-15; reading uncertain; also: staple: ‑(CH2)6‑CH:CH‑(CH2)3‑)",Relative VEGF (Hypoxia/Normoxia),[1],1.36
"SEQ ID NO: 16: cross-linked (stapled) peptide derived from SEQ ID NO: 1 (KASVM[formula (I), R19:CH3]LTISYL[formula (I), R19:CH3]VR-NH2; staple 6-13; reading uncertain; also: staple: ‑(CH2)6‑CH:CH‑(CH2)3‑)",Relative VEGF (Hypoxia/Normoxia),[1],1.01
same,Relative VEGF (Hypoxia/Normoxia),[2],0.88
same,Relative VEGF (Hypoxia/Normoxia),[3],1.30
"SEQ ID NO: 19: cross-linked (stapled) peptide derived from SEQ ID NO: 1 (LDKA[formula (I), R19:CH3]VMRLTI[formula (I), R19:CH3]YLRVRK-NH2; staple 5-12; reading uncertain; also: staple: ‑(CH2)6‑CH:CH‑(CH2)3‑)",Relative VEGF (Hypoxia/Normoxia),[1],1.39
"SEQ ID NO: 20: cross-linked (stapled) peptide derived from SEQ ID NO: 1 (LDKASV[formula (I), R19:CH3]RLTISY[formula (I), R19:CH3]RVRK-NH2; staple 7-14; reading uncertain; also: staple: ‑(CH2)6‑CH:CH‑(CH2)3‑)",Relative VEGF (Hypoxia/Normoxia),[1],0.99
"SEQ ID NO: 29: peptide of the second aspect with linker biradical, derived from SEQ ID NO: 22 (RSRRSKE[formula (I), R19:CH3]EVFYEL[formula (I), R19:CH3]HQ-NH2; staple 8-15; reading uncertain; also: staple: ‑(CH2)6‑CH:CH‑(CH2)3‑)",Relative VEGF (Hypoxia/Normoxia),[1],2.60
"KASVMRLTISYLRV [SEQ ID NO: 37, 14 amino acid lineal peptide]",Relative VEGF (Hipoxia/Normoxia),[1],2.02
"KASVMRLTISYLRVR [SEQ ID NO: 36, 15 amino acid lineal peptide disclosed in WO2006038208(A2), reference compound]",Effect on VEGF expression under hypoxia conditions (in words),[1],no effect in the modulation of VEGF expression
same,Relative VEGF (Hipoxia/Normoxia),[1],1.89
"SEQ ID NO: 17: cross-linked (stapled) peptide; differs from SEQ ID NO: 16 only in the C-terminal end (KASVM[formula (I), R19:CH3]LTISYL[formula (I), R19:CH3]VR-OH; staple 6-13; reading uncertain; also: staple: ‑(CH2)6‑CH:CH‑(CH2)3‑)",Relative VEGF (Hypoxia/Normoxia),[1],1.02
same,VEGF mRNA level compared to untreated cells (in words),[4]; hypoxia,reduced significantly the mRNA level
same,VEGF mRNA level compared to untreated cells (in words),[4]; normoxia,just a slide reduction
same,Relative Copy to Control,"[4]; hypoxia, untreated hypoxia 4.50",0.76
same,VEGF mRNA Copy/Copy million of Actine,"[4]; hypoxia, untreated hypoxia 152782",25873 Copy/Copy million of Actine
same,Relative Copy to Control,[4]; normoxia,0.93
same,VEGF mRNA Copy/Copy million of Actine,"[4]; normoxia, untreated normoxia 33918",31454 Copy/Copy million of Actine
same,CD31 expression in treated tumours compared with the control (immunohistochemistry),[5],statistically significant decrease of CD31 expression
"LDKASVMRLTISYLRVRK [SEQ ID NO: 13, lineal peptide, 18 amino acids]",Effect on VEGF expression under hypoxia conditions (in words),[1],increase VEGF expression under hypoxia conditions
same,Relative VEGF (Hypoxia/Normoxia),[1],2.59
"SEQ ID NO: 14: cross-linked (stapled) peptide derived from SEQ ID NO: 1 (KA[formula (I), R19:CH3]VMRLTI[formula (I), R19:CH3]YLRVR-NH2; staple 3-10; reading uncertain; also: staple: ‑(CH2)6‑CH:CH‑(CH2)3‑)",Relative VEGF (Hypoxia/Normoxia),[1],1.41
"SEQ ID NO: 30: peptide of the second aspect with linker biradical, derived from SEQ ID NO: 22 (RSRRSKESE[formula (I)]FYELAH[formula (I)]-NH2; staple 10-17; reading uncertain; also: staple: ‑(CH2)6‑CH:CH‑(CH2)3‑)",Relative VEGF (Hypoxia/Normoxia),[1],2.70
"SEQ ID NO: 31: peptide of the second aspect with linker biradical, derived from SEQ ID NO: 22 (RS[formula (I)]RSKESE[formula (I)]FYELAHQLP-NH2; staple 3-10; reading uncertain; also: staple: ‑(CH2)6‑CH:CH‑(CH2)3‑)",Relative VEGF (Hypoxia/Normoxia),[1],2.64
